According to PMC5218480 (PLoS ONE, 2017):

System: MV-4-11 cells
Test: Gene expression microarray analysis (Affymetrix PrimeView) and GSEA
Type: cell-based, human
Set-up: RFU PODN (11730768_x_at) / Fold change /veh PODN (11730768_x_at) / RFU LINC00158 (11744669_a_at) / Fold change /veh LINC00158 (11744669_a_at) / RFU DUSP10 (11751237_a_at) / Fold change /veh DUSP10 (11751237_a_at) / RFU ID3 (11757404_x_at) / Fold change /veh ID3 (11757404_x_at) / RFU PLEKHG5 (11737974_s_at) / Fold change /veh PLEKHG5 (11737974_s_at) / RFU LRRC4B (11730491_at) / Fold change /veh LRRC4B (11730491_at) / RFU GIMAP4 (11747438_a_at) / Fold change /veh GIMAP4 (11747438_a_at) / RFU KRT8 (11758183_x_at) / Fold change /veh KRT8 (11758183_x_at) / RFU CNN1 (11734310_a_at) / Fold change /veh CNN1 (11734310_a_at) / RFU VPS37D (11726825_at) / Fold change /veh VPS37D (11726825_at) / RFU C10orf10 (11716522_x_at) / Fold change /veh C10orf10 (11716522_x_at) / RFU KIR2DL2 /// KIR2DL4 /// KIR2DL5A /// KIR2DL5B /// KIR2DS1 /// KIR2DS2 /// KIR2DS3 /// KIR2DS4 /// KIR3DL3 /// KIR3DL3 /// KIR3DS1 (11738374_at) / Fold change /veh KIR2DL2 /// KIR2DL4 /// KIR2DL5A /// KIR2DL5B /// KIR2DS1 /// KIR2DS2 /// KIR2DS3 /// KIR2DS4 /// KIR3DL3 /// KIR3DL3 /// KIR3DS1 (11738374_at) / RFU C1QL1 (11718748_at) / Fold change /veh C1QL1 (11718748_at) / RFU TMPRSS4 (11747572_a_at) / Fold change /veh TMPRSS4 (11747572_a_at) / RFU HAMP (11756126_x_at) / Fold change /veh HAMP (11756126_x_at) / RFU RNFT2 (11725882_a_at) / Fold change /veh RNFT2 (11725882_a_at) / RFU NR4A2 (11747474_a_at) / Fold change /veh NR4A2 (11747474_a_at) / RFU ABCC12 (11746883_a_at) / Fold change /veh ABCC12 (11746883_a_at) / RFU TMEM136 (11760407_x_at) / Fold change /veh TMEM136 (11760407_x_at) / RFU CLDN22 /// WWC2 (11732394_at) / Fold change /veh CLDN22 /// WWC2 (11732394_at) / RFU HLA-DPB1 (11760878_x_at) / Fold change /veh HLA-DPB1 (11760878_x_at) / RFU SPINT1 (11716480_a_at) / Fold change /veh SPINT1 (11716480_a_at) / RFU GAP43 (11754022_s_at) / Fold change /veh GAP43 (11754022_s_at) / RFU A4GNT (11735810_at) / Fold change /veh A4GNT (11735810_at) / RFU PRB3 (11715151_x_at) / Fold change /veh PRB3 (11715151_x_at) / RFU TUBB4B (11761932_at) / Fold change /veh TUBB4B (11761932_at) / RFU CAPN14 (11732068_a_at) / Fold change /veh CAPN14 (11732068_a_at) / RFU TMCC2 (11721928_a_at) / Fold change /veh TMCC2 (11721928_a_at) / RFU IRGQ (11745062_a_at) / Fold change /veh IRGQ (11745062_a_at) / RFU FAM174B (11720279_a_at) / Fold change /veh FAM174B (11720279_a_at) / RFU TMPRSS4 (11748680_a_at) / Fold change /veh TMPRSS4 (11748680_a_at) / RFU FAM212B (11763350_a_at) / Fold change /veh FAM212B (11763350_a_at) / RFU PLEKHG5 (11743358_a_at) / Fold change /veh PLEKHG5 (11743358_a_at) / RFU ZSCAN30 (11745921_a_at) / Fold change /veh ZSCAN30 (11745921_a_at) / RFU CMKLR1 (11741424_a_at) / Fold change /veh CMKLR1 (11741424_a_at) / RFU LOC101060620 /// MAPK8IP1 (11723275_at) / Fold change /veh LOC101060620 /// MAPK8IP1 (11723275_at) / RFU SPTSSB (11747773_x_at) / Fold change /veh SPTSSB (11747773_x_at) / RFU PRSS12 (11739890_at) / Fold change /veh PRSS12 (11739890_at) / RFU BIN1 (11741810_x_at) / Fold change /veh BIN1 (11741810_x_at) / RFU WNT11 (11732464_a_at) / Fold change /veh WNT11 (11732464_a_at) / RFU C10orf10 (11716521_a_at) / Fold change /veh C10orf10 (11716521_a_at) / RFU C5orf56 (11738089_at) / Fold change /veh C5orf56 (11738089_at) / RFU CYB561 (11721691_x_at) / Fold change /veh CYB561 (11721691_x_at) / RFU ANKRD19P (11752326_a_at) / Fold change /veh ANKRD19P (11752326_a_at) / RFU OR2T12 /// OR2T33 /// OR2T8 (11738714_s_at) / Fold change /veh OR2T12 /// OR2T33 /// OR2T8 (11738714_s_at) / RFU VCAN (11748164_a_at) / Fold change /veh VCAN (11748164_a_at) / RFU JSRP1 (11732532_at) / Fold change /veh JSRP1 (11732532_at) / RFU KRTAP10-11 (11738290_x_at) / Fold change /veh KRTAP10-11 (11738290_x_at) / RFU MYO3A (11730013_a_at) / Fold change /veh MYO3A (11730013_a_at) / RFU EBF3 (11725865_a_at) / Fold change /veh EBF3 (11725865_a_at) / RFU CAMK2N1 (11719241_x_at) / Fold change /veh CAMK2N1 (11719241_x_at) / RFU C5orf56 (11738088_a_at) / Fold change /veh C5orf56 (11738088_a_at) / RFU OLFML3 (11715873_a_at) / Fold change /veh OLFML3 (11715873_a_at) / RFU LOC100653217 /// NTM (11731650_a_at) / Fold change /veh LOC100653217 /// NTM (11731650_a_at) / RFU MAPK11 (11762145_a_at) / Fold change /veh MAPK11 (11762145_a_at) / RFU FIZ1 (11724087_x_at) / Fold change /veh FIZ1 (11724087_x_at) / RFU OASL (11726364_x_at) / Fold change /veh OASL (11726364_x_at) / RFU SOX15 (11748057_x_at) / Fold change /veh SOX15 (11748057_x_at) / RFU CD79A (11719716_a_at) / Fold change /veh CD79A (11719716_a_at) / RFU HIST1H1D (11736915_at) / Fold change /veh HIST1H1D (11736915_at) / RFU CASKIN2 (11723855_a_at) / Fold change /veh CASKIN2 (11723855_a_at) / RFU LOC730098 (11760151_x_at) / Fold change /veh LOC730098 (11760151_x_at) / RFU OR4N2 (11742367_at) / Fold change /veh OR4N2 (11742367_at) / RFU PRRT2 (11749266_a_at) / Fold change /veh PRRT2 (11749266_a_at) / RFU SNX32 (11753110_a_at) / Fold change /veh SNX32 (11753110_a_at) / RFU CDHR5 (11726645_a_at) / Fold change /veh CDHR5 (11726645_a_at) / RFU RCAN1 (11760418_a_at) / Fold change /veh RCAN1 (11760418_a_at) / RFU FAM167A (11723789_a_at) / Fold change /veh FAM167A (11723789_a_at) / RFU FAM26E (11764081_at) / Fold change /veh FAM26E (11764081_at) / RFU ISYNA1 (11749810_s_at) / Fold change /veh ISYNA1 (11749810_s_at) / RFU ACY1 (11761880_at) / Fold change /veh ACY1 (11761880_at) / RFU 11764098_at / Fold change /veh 11764098_at / RFU SAMD14 (11745864_x_at) / Fold change /veh SAMD14 (11745864_x_at) / RFU NPB (11741838_a_at) / Fold change /veh NPB (11741838_a_at) / RFU TMPRSS6 (11731388_a_at) / Fold change /veh TMPRSS6 (11731388_a_at) / RFU KRTAP10-2 (11738614_at) / Fold change /veh KRTAP10-2 (11738614_at) / RFU ARHGAP8 /// PRR5-ARHGAP8 (11727945_x_at) / Fold change /veh ARHGAP8 /// PRR5-ARHGAP8 (11727945_x_at) / RFU KRTAP5-7 /// NADSYN1 (11734609_at) / Fold change /veh KRTAP5-7 /// NADSYN1 (11734609_at) / RFU RASL12 (11751679_a_at) / Fold change /veh RASL12 (11751679_a_at) / RFU CDKN2B (11736163_a_at) / Fold change /veh CDKN2B (11736163_a_at) / RFU PRF1 (11729649_at) / Fold change /veh PRF1 (11729649_at) / RFU, ZNF638 /// ZNF638-IT1 / Fold change vs veh, ZNF638 /// ZNF638-IT1 / RFU, PANK3 / Fold change vs veh, PANK3 / RFU, SH3YL1 / Fold change vs veh, SH3YL1 / RFU, ZEB2 / Fold change vs veh, ZEB2 / RFU, NRIP1 / Fold change vs veh, NRIP1 / RFU, PTTG1IP / Fold change vs veh, PTTG1IP / RFU, CAPN2 / Fold change vs veh, CAPN2 / RFU, MED14 / Fold change vs veh, MED14 / RFU, SNORA58 / Fold change vs veh, SNORA58 / RFU, C1orf63 / Fold change vs veh, C1orf63 / RFU, LRRFIP1 / Fold change vs veh, LRRFIP1 / RFU, NDUFAF7 / Fold change vs veh, NDUFAF7 / RFU, SLC12A2 / Fold change vs veh, SLC12A2 / RFU, IBTK / Fold change vs veh, IBTK / RFU, ESF1 / Fold change vs veh, ESF1 / Fold change vs veh, TMEM50B / RFU, TAOK1 / Fold change vs veh, TAOK1 / RFU, ACBD3 / Fold change vs veh, ACBD3 / RFU, TMA16 / Fold change vs veh, TMA16 / RFU, RWDD3 / Fold change vs veh, RWDD3 / RFU, BCAT1 / Fold change vs veh, BCAT1 / RFU, EDEM3 / Fold change vs veh, EDEM3 / RFU, TMEM33 / Fold change vs veh, TMEM33 / RFU, WDR75 / Fold change vs veh, WDR75 / RFU, AHCTF1 / Fold change vs veh, AHCTF1 / RFU, TFRC / Fold change vs veh, TFRC / RFU, ZDHHC17 / Fold change vs veh, ZDHHC17 / RFU, NOM1 / Fold change vs veh, NOM1 / RFU, ARL8B / Fold change vs veh, ARL8B / RFU, ZBTB11 / Fold change vs veh, ZBTB11 / RFU, TAMM41 / Fold change vs veh, TAMM41 / RFU, KIAA1704 /// LOC100996395 / Fold change vs veh, KIAA1704 /// LOC100996395 / RFU, ING1 / Fold change vs veh, ING1 / RFU, TRMT61B / Fold change vs veh, TRMT61B / RFU, FUBP3 / Fold change vs veh, FUBP3 / RFU, TP53 / Fold change vs veh, TP53 / RFU, TNKS2 / Fold change vs veh, TNKS2 / RFU, ZFP14 / Fold change vs veh, ZFP14 / RFU, ACTR2 / Fold change vs veh, ACTR2 / RFU, PPP3R1 / Fold change vs veh, PPP3R1 / RFU, PIK3R1 / Fold change vs veh, PIK3R1 / RFU, HNRNPA1 / Fold change vs veh, HNRNPA1 / RFU, RNF170 / Fold change vs veh, RNF170 / RFU, ZNF28 / Fold change vs veh, ZNF28 / RFU, RNGTT / Fold change vs veh, RNGTT / RFU, OGT / Fold change vs veh, OGT / RFU, BRD1 / Fold change vs veh, BRD1 / RFU, MARS / Fold change vs veh, MARS / RFU, ZNF655 / Fold change vs veh, ZNF655 / RFU, FAHD1 / Fold change vs veh, FAHD1 / RFU, BDP1 / Fold change vs veh, BDP1 / RFU, LRRCC1 / Fold change vs veh, LRRCC1 / RFU, ARID1A / Fold change vs veh, ARID1A / RFU, ZNF146 / Fold change vs veh, ZNF146 / RFU, ZNF330 / Fold change vs veh, ZNF330 / RFU, GPN3 / Fold change vs veh, GPN3 / RFU, C9orf123 / Fold change vs veh, C9orf123 / RFU, N4BP2L2 / Fold change vs veh, N4BP2L2 / RFU, ARFIP1 / Fold change vs veh, ARFIP1 / RFU, FAM179B / Fold change vs veh, FAM179B / RFU, BCL10 / Fold change vs veh, BCL10 / RFU, UHRF1BP1L / Fold change vs veh, UHRF1BP1L / RFU, BET1 / Fold change vs veh, BET1 / RFU, CNOT2 / Fold change vs veh, CNOT2 / RFU, ZNF268 / Fold change vs veh, ZNF268 / Fold change vs veh, ZNF507 / RFU, DGCR2 / Fold change vs veh, DGCR2 / RFU, WDSUB1 / Fold change vs veh, WDSUB1 / Fold change vs veh, HSP90B1 /// MIR3652 / RFU, ADSS / Fold change vs veh, ADSS / RFU, GK / Fold change vs veh, GK / RFU, ZNF148 / Fold change vs veh, ZNF148 / RFU, TAF9 / Fold change vs veh, TAF9 / RFU, SLC1A5 / Fold change vs veh, SLC1A5 / RFU, SLMO2 / Fold change vs veh, SLMO2 / RFU, ABCC4 / Fold change vs veh, ABCC4 / RFU, LOC101060439 /// RAP1B / Fold change vs veh, LOC101060439 /// RAP1B / RFU, RFX7 / Fold change vs veh, RFX7 / RFU, GTPBP10 / Fold change vs veh, GTPBP10 / RFU, CNEP1R1 / Fold change vs veh, CNEP1R1 / RFU, BIVM-ERCC5 /// ERCC5 / Fold change vs veh, BIVM-ERCC5 /// ERCC5 / RFU, ILF3 / Fold change vs veh, ILF3 / RFU 11762660_at / Fold change /veh 11762660_at / RFU VCAN (11757783_s_at) / Fold change /veh VCAN (11757783_s_at) / RFU DDX43 (11728927_at) / Fold change /veh DDX43 (11728927_at) / RFU KRT8 (11758188_x_at) / Fold change /veh KRT8 (11758188_x_at) / RFU NKD1 (11759106_at) / Fold change /veh NKD1 (11759106_at) / RFU SRD5A1 (11742802_a_at) / Fold change /veh SRD5A1 (11742802_a_at) / RFU TPSAB1 /// TPSB2 (11721975_s_at) / Fold change /veh TPSAB1 /// TPSB2 (11721975_s_at) / RFU GSTM3 (11746129_a_at) / Fold change /veh GSTM3 (11746129_a_at) / RFU IL23R (11737362_x_at) / Fold change /veh IL23R (11737362_x_at) / RFU TMEM51 (11727254_a_at) / Fold change /veh TMEM51 (11727254_a_at) / RFU PIWIL2 (11732686_x_at) / Fold change /veh PIWIL2 (11732686_x_at) / RFU ORM1 (11744905_x_at) / Fold change /veh ORM1 (11744905_x_at) / RFU CCDC152 (11743942_at) / Fold change /veh CCDC152 (11743942_at) / RFU ECM1 (11717891_a_at) / Fold change /veh ECM1 (11717891_a_at) / RFU IL23R (11748794_a_at) / Fold change /veh IL23R (11748794_a_at) / RFU TNFAIP8L3 (11732012_x_at) / Fold change /veh TNFAIP8L3 (11732012_x_at) / RFU MBOAT4 (11741988_at) / Fold change /veh MBOAT4 (11741988_at) / RFU 11764193_at / Fold change /veh 11764193_at / RFU TMEM53 (11763286_at) / Fold change /veh TMEM53 (11763286_at) / RFU MAGEB2 (11727129_at) / Fold change /veh MAGEB2 (11727129_at) / RFU TMEM200A (11744735_a_at) / Fold change /veh TMEM200A (11744735_a_at) / RFU CCDC152 (11751479_a_at) / Fold change /veh CCDC152 (11751479_a_at) / RFU FAM211A (11726209_a_at) / Fold change /veh FAM211A (11726209_a_at) / RFU RGS16 (11746705_a_at) / Fold change /veh RGS16 (11746705_a_at) / RFU VCAN (11755009_s_at) / Fold change /veh VCAN (11755009_s_at) / RFU RHOB (11743442_s_at) / Fold change /veh RHOB (11743442_s_at) / RFU RGS16 (11720943_a_at) / Fold change /veh RGS16 (11720943_a_at) / RFU RGS16 (11720944_at) / Fold change /veh RGS16 (11720944_at) / RFU, VPS4B / Fold change vs veh, VPS4B / RFU, CREB1 / Fold change vs veh, CREB1 / RFU, DNAJC13 / Fold change vs veh, DNAJC13 / RFU, GNAQ / Fold change vs veh, GNAQ / RFU, CDK5R1 / Fold change vs veh, CDK5R1 / RFU, ZRANB3 / Fold change vs veh, ZRANB3 / RFU, CUL4A / Fold change vs veh, CUL4A / RFU, CCNY / Fold change vs veh, CCNY / RFU, UFL1 / Fold change vs veh, UFL1 / RFU, COG3 / Fold change vs veh, COG3 / RFU, DIAPH2 / Fold change vs veh, DIAPH2 / RFU, SKA2 / Fold change vs veh, SKA2 / RFU, AFF3 / Fold change vs veh, AFF3 / RFU, LMF1 / Fold change vs veh, LMF1 / RFU, IPO11 / Fold change vs veh, IPO11 / RFU, DFFB / Fold change vs veh, DFFB / RFU, FOXP1 / Fold change vs veh, FOXP1 / RFU, CARD8 / Fold change vs veh, CARD8 / RFU, STRN3 / Fold change vs veh, STRN3 / RFU, ADK / Fold change vs veh, ADK / RFU, RASSF2 / Fold change vs veh, RASSF2 / RFU, WIPF1 / Fold change vs veh, WIPF1 / RFU, LARP1B / Fold change vs veh, LARP1B / RFU, RASA1 / Fold change vs veh, RASA1 / RFU, RB1 / Fold change vs veh, RB1 / RFU, PPFIA1 / Fold change vs veh, PPFIA1 / RFU, MAT2A / Fold change vs veh, MAT2A / RFU, CCT5 / Fold change vs veh, CCT5 / RFU, WDR92 / Fold change vs veh, WDR92 / RFU, CUX1 / Fold change vs veh, CUX1 / RFU, TTC7A / Fold change vs veh, TTC7A / RFU, TMEM135 / Fold change vs veh, TMEM135 / RFU, DEPTOR / Fold change vs veh, DEPTOR / RFU, CPM / Fold change vs veh, CPM / RFU, DNAJB6 / Fold change vs veh, DNAJB6 / RFU, CACNA2D3 / Fold change vs veh, CACNA2D3 / RFU, DTX4 / Fold change vs veh, DTX4 / RFU, TFCP2 / Fold change vs veh, TFCP2 / RFU, GMCL1 /// GMCL1P1 / Fold change vs veh, GMCL1 /// GMCL1P1 / RFU, AEBP2 / Fold change vs veh, AEBP2 / RFU, SNHG1 /// SNORD22 /// SNORD25 /// SNORD26 /// SNORD27 /// SNORD28 /// SNORD29 /// SNORD31 / Fold change vs veh, SNHG1 /// SNORD22 /// SNORD25 /// SNORD26 /// SNORD27 /// SNORD28 /// SNORD29 /// SNORD31 / Fold change (Aza/veh), C12orf56 (ProbeSet 11735607_a_at) / Fold change (ACY-1035/veh), C12orf56 (ProbeSet 11735607_a_at) / Fold change (Aza/veh), FGFR1OP (ProbeSet 11751329_s_at) / Fold change (ACY-1035/veh), FGFR1OP (ProbeSet 11751329_s_at) / Fold change (Aza/veh), VPS36 (ProbeSet 11739960_a_at) / Fold change (ACY-1035/veh), VPS36 (ProbeSet 11739960_a_at) / RFU SYPL1 (11715823_x_at) / Fold change /veh SYPL1 (11715823_x_at) / RFU IGFBP7 (11715501_s_at) / Fold change /veh IGFBP7 (11715501_s_at) / RFU REEP3 (11722064_at) / Fold change /veh REEP3 (11722064_at) / RFU IGLL1 (11728026_x_at) / Fold change /veh IGLL1 (11728026_x_at): dose or concentration left out as unconfirmed
Settings: MV-4-11 cells, 48 hours

Nc1ccc(-c2cccs2)cc1NC(=O)c1ccc2c(c1)cc(C1CC1)n2CCN1CCOCC1 [ACY-1035]
Fold change /veh KRTAP5-7 /// NADSYN1 (11734609_at): 0.96
